Source: patent US9321728B2, “Beta-alanine derivatives, pharmaceutically acceptable salts thereof, and pharmaceutical composition comprising same as active ingredient” (KOREA RESEARCH INSTITUTE OF CHEMICAL TECHNOLOGY, priority 2012, dated 2016)

Target: human DGAT1 (Homo sapiens (Human), UniProt O75907)
Assay: Human DGAT1 enzyme inhibition test (phospholipid FlashPlate, [14C]decanoyl-CoA)
Type: biochemical
Settings: for IC50: lysate of Hep3B cells over-expressing human DGAT1 (5 μg/well), didecanoyl glycerol and [14C]decanoyl-CoA substrates; for in vitro inhibition activity with respect to DGAT1: verbal summary of Table 1
Protocol: The cells were treated with 200 μg/ml G-418(Sigma) once every three days for 4 weeks to over-express the human DGAT1, thereby obtaining a stabilized cell line. The over-expressed cells were put into a homogenization buffer [250 mM sucrose, 10 mM Tris-HCl (pH 7.4), 1 mM EDTA] and lysed by a homogenization apparatus. Then, centrifugation was performed with 600×g for 15 minutes to remove cell residue, and the obtained cells were used for an enzyme inhibition test. Human DGAT-1 and mouse DGAT activity was determined as follows: Assay buffer [20 mM HEPES (pH 7.4), 100 mM MgCl2, 0.04% BSA] containing 500 μM of enzyme substrate (didecanoyl glycerol) and 7.5 μM radiolabeled acyl-CoA substrate ([^14C]decanoyl-CoA) was added to each well of a phospholipid FlashPlate (PerkinElmer Life Sciences). A small aliquot of lysate (5 μg/well) or mouse liver microsome (0.1 mg/well) was added to start the reaction, which was allowed to proceed in a 20° C. bath for 1 hour. and maintained overnight at room temperature. Next day, measurement was performed by Wallac 1450 Microbeta Trilux Liquid Scintillation Counter and Luminometer (PerkinElmer Life Science). […] A calculation method of inhibition degree (%) is as follows.

Sequence of human DGAT1 (O75907 whole entry): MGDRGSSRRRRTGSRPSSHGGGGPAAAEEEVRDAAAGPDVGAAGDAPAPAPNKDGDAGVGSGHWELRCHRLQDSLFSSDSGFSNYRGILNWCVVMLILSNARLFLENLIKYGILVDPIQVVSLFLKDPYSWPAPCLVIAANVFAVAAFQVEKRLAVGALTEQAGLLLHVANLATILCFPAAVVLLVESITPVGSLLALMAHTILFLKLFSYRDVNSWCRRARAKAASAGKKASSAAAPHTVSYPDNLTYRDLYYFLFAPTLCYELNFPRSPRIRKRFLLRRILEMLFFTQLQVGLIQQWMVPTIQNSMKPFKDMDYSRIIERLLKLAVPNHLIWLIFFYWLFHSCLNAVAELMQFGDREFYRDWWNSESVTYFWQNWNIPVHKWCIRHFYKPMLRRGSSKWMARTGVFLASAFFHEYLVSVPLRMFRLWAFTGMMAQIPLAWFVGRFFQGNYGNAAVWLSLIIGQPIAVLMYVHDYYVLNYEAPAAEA

Row | IC50 | in vitro inhibition activity with respect to DGAT1 | SMILES
1 | < 50 nM | – | O=C(O)C[C@H]1CC[C@H](c2ccc(NC(=O)CCNC(=O)c3nc(-c4ccccc4Cl)oc3C(F)(F)F)cc2)CC1 [Compound 79, sodium; trans-{4-[4-(3-{[2-(2-chlorophenyl)-5-trifluoromethyloxazole-4-carbonyl]amino}propionylamino)phenyl]cyclohexyl}acetate]
2 | < 100 nM | – | O=C(O)C[C@H]1CC[C@H](c2ccc(NC(=O)CCNC(=O)c3ccc(-c4ccccc4Cl)cc3)cc2)CC1 [Compound 86, trans-[4-(4-{3-[(2′-chlorobiphenyl-4-carbonyl)amino]propionylamino}phenyl)cyclohexyl]acetic acid]
3 | < 100 nM | – | O=C(O)C[C@H]1CC[C@H](c2ccc(NC(=O)CCNC(=O)c3nc(-c4ccccc4)oc3Cl)cc2)CC1 [Compound 87, trans-[4-(4-{3-[(5-chloro-2-phenyloxazole-4-carbonyl)amino]propionylamino}phenyl)cyclohexyl]acetic acid]
4 | < 50 nM | good to excellent | CCc1ccc(-c2ccc(C(=O)NCCC(=O)Nc3ccc([C@H]4CC[C@H](CC(=O)O)CC4)cc3)cc2)cc1 [Compound 93, trans-[4-(4-{3-[(4′-ethylbiphenyl-4-carbonyl)amino]propionylamino}phenyl)cyclohexyl]acetic acid]
5 | < 50 nM | good to excellent | O=C(O)C[C@H]1CC[C@H](c2ccc(NC(=O)CCNC(=O)c3ccc(-c4ccccc4)c(Cl)c3)cc2)CC1 [Compound 94, trans-[4-(4-{3-[(2-chlorobiphenyl-4-carbonyl)amino]propionylamino}phenyl)cyclohexyl]acetic acid]
6 | < 50 nM | good to excellent | O=C(O)C[C@H]1CC[C@H](c2ccc(NC(=O)CCNC(=O)c3nc(-c4ccccc4Cl)oc3Cl)cc2)CC1 [Compound 95, trans-{4-[4-(3-{[5-chloro-2-(2-chlorophenyl)oxazole-4-carbonyl]amino}propionylamino)phenyl]cyclohexyl}acetic acid]
7 | < 50 nM | good to excellent | O=C(O)C[C@H]1CC[C@H](c2ccc(NC(=O)CCNC(=O)c3nc(-c4c(Cl)cc(F)cc4Cl)oc3C(F)(F)F)cc2)CC1 [Compound 105]
